Patent US20180028480A1, “METHODS OF REDUCING OR PREVENTING OXIDATIVE MODIFICATION OF MEMBRANE POLYUNSATURATED FATTY ACIDS” (Amarin Pharmaceuticals Ireland Limited, priority 2015, published 2018)

Legend:
[1] = tested on: lipid vesicles enriched with PUFAs and cholesterol; experiment: Glucose-induced membrane lipid peroxidation (LOOH) in DLPC/cholesterol multilamellar vesicles (Example 4); assay type: biochemical; conditions: each at 1.0 μM; glucose 200 mg/dL; 96 hours
Experimental: Vitamin E (α-tocopherol) was also purchased from Sigma-Aldrich and prepared in ethanol at 1.0 mM (ε32 3.06×10^4 M^−1 cm^−1 at 294 nm) just prior to experimental use. […] All test compounds were further diluted in ethanol or aqueous buffer as needed. Glucose was prepared in saline buffer (0.5 mM HEPES, 154 mM NaCl, pH 7.3) at 11.0 mM (200 mg/dL). CHOD-iodide color reagent (stock) was prepared, with slight modification, as described by from El-Saadani et al. (J. […] Prior to experimental use, the CHOD reagent was activated by adding 24 μM ethylenediaminetetraacetic acid (EDTA), 20 μM butylated hydroxytoluene (BHT), and 0.2% Triton X-100. Multilamellar vesicles (MLVs) were prepared as binary mixtures of DLPC (1.0 or 2.5 mg total phospholipid per sample) and cholesterol at a fixed cholesterol-to-phospholipid (C/P) mole ratio of 0.6:1. Component lipids (in chloroform) were transferred to 13×100 mm borosilicate culture tubes and combined with vehicle (ethanol) or an equal volume of fatty acid, vitamin E, or ATM stock solutions, each adjusted to achieve desired treatment concentrations. Samples were shell-dried under nitrogen gas and placed under vacuum for 1 h to remove residual solvent. […] Lipid suspensions were then vortexed for 3 min at ambient temperature to form MLVs. All MLV samples were subjected to time-dependent autoxidation by incubating at 37° C. in an uncovered, shaking water bath. This method allows lipid peroxidation to occur gradually without requiring the use of exogenous initiators. Small aliquots (5-100 μL) of each sample were removed, immediately following MLV preparation (0 hour) and after exposing samples to oxidative conditions for 72 or 96 hour, and combined with 1.0 mL of activated CHOD-iodide color reagent. Aliquot volume was reduced with each successive time point to ensure that spectrophotometric readings were within the optimal adsorption range. Test samples were covered and incubated in darkness at room temperature for at least 4 hr. Sample absorbances were then measured against a CHOD blank at 365 nm using a Beckman DU-640 spectrophotometer. The CHOD colorimetric assay is based on the oxidation of iodide (I^−) by lipid hydroperoxide (LOOH) to form triiodide (I3^−), the quantity of which is directly proportional to the amount of LOOH present in the lipid sample. The molar absorptivity (c) of I3^− is 2.46×10^4 M^−1 cm^−1 at 365 nm. […] The concentration of glucose selected was consistent with previous experimental studies of hyperglycemia under controlled laboratory conditions or observed in well-defined animal models of Type II diabetes following a glucose challenge. […] Values in FIG. 1 are mean±S.D. (N=6). […]

[2] = X-ray diffraction of cholesterol-enriched POPC membranes without oxidative conditions (Example 8); conditions: 5 mol %; 50 mol % cholesterol; 15° C., 20° C., 30° C. (FIG. 18)
Experimental: Values are mean±S.D. (N=3).
FIGS. 18A-18C show representative x-ray diffraction patterns collected from cholesterol-enriched model membranes treated with vehicle (control), eicosapentaenoic acid (EPA), or docosahexaenoic acid (DHA) and examined at 15° C., 20° C., and 30° C. Membranes were reconstituted from POPC and cholesterol at 50 mol % cholesterol and treated with each of the various agents at 5 mol % (to match treatments used in corresponding lipid dynamics experiments). Each sample was maintained at 74% relative humidity by exposing the samples to a saturated solution of L-(+) tartaric acid. […] DHA, but not EPA or vehicle, induced the formation of cholesterol domains, which are indicated by a distinct set of diffraction peaks (shaded peaks) having a characteristic d-space value of 34 Å and shown to be stable over a broad range of temperatures.
(§1) Multilamellar vesicles (MLVs) were prepared as binary mixtures of POPC and cholesterol at 50 mol %. MLVs with DLPC and cholesterol at cholesterol-to-phospholipid (C/P) mole ratios of 0.1:1 to 1.1:1 were also prepared in a similar manner. Component lipids (in chloroform) were transferred to borosilicate culture tubes and combined with vehicle (ethanol) or an equal volume of EPA, DHA, fenofibrate, niacin or gemfibrozil stock solution(s) and adjusted to achieve a drug-to-phospholipid (D/P) mole ratio of 1:30. Membranes reconstituted from POPC and cholesterol (at 50 mol % cholesterol) were treated with each of the various agents at 5 mol %. Samples were then shell-dried under nitrogen gas and placed under vacuum for 3 hours to remove residual solvent.
Membrane samples were oriented for x-ray diffraction analysis as described in Mason, et al., J. Biol. Chem., vol. 281, pages 9337-45 (2006). Briefly, 100 μL aliquots of each MLV preparation (containing 250 μg of phospholipid) were transferred to Lucite sedimentation cells fitted with a removable aluminum foil substrate designed to collect MLVs into a single membrane pellet upon centrifugation. […]

[3] = Fluorescence anisotropy, DPH apparent rotational correlation time (Example 8); conditions: POPC, 0 or 50 mol % cholesterol; increasing omega-3 fatty acid concentrations (FIGS. 16A-16B)
From the text: FIGS. 16A-16B show the dose-dependent effects of EPA and DHA on the ARCT measured for DPH in POPC membranes prepared at either 0 or 50 mol % cholesterol. †p=0.0331 versus cognate DHA treatment (5 mol % omega-3 fatty acids (O3FA), no cholesterol); ^§p=0.0016 versus cognate DHA treatment (5 mol % O3FA, 50 mol % cholesterol); ^‡p=0.0032 versus cognate DHA treatment (10 mol % O3FA, 50 mol % cholesterol) (unpaired, two-tailed Student's t-test). Values are mean±S.D. (N=3).
Fluorescence anisotropy experiments were conducted using large unilamellar vesicles (LUVs) of 100 nm diameter of either POPC (or POPC/cholesterol) containing increasing concentrations of EPA or DHA and 1 mol % DPH fluorescent. Briefly, 640 nmol of total lipid (phospholipid and sterol) and 6.4 nmol of fluorescent probe was mixed well and dried under a stream of nitrogen while being warmed gently at 35° C. […]
In order to ensure that the anisotropy values measured for DPH are not influenced by lifetime-induced artifacts, the apparent (average) rotational correlation times (ARCT) were calculated using Perrin's equation: […]
where r0 is the limiting anisotropy of DPH, r is the steady state anisotropy, and is the mean fluorescence lifetime.

[4] = X-ray diffraction of glucose-treated DLPC/cholesterol membranes under oxidative conditions (Example 8); conditions: for effect on d-space values: 10.0 μM, 0.6 C/P, glucose-induced lipid peroxidation 72 hours (FIG. 14); for cholesterol domain peaks compared to samples treated with EPA: after 96 hours, C/P 0.6:1, drug-to-phospholipid 1:30
Experimental: Values are reported as mean±S.D. (N=3).
[…] Membranes were reconstituted from DLPC and cholesterol at a C/P mole ratio of 0.6:1 and treated with the various agents to achieve a total drug-to-phospholipid mole ratio of 1:30.
as §1
After drying, each sample was resuspended in glucose-free or glucose-containing saline buffer to yield a final phospholipid concentration of 2.5 mg/mL. Lipid suspensions were then vortexed for 3 minutes at ambient temperature to form MLVs.
Membrane samples were oriented for x-ray diffraction analysis as described in Mason, et al., J. Biol. Chem., vol. 281, pages 9337-45 (2006). Briefly, 100 μL aliquots of each MLV preparation (containing 250 μg of phospholipid) were transferred to Lucite sedimentation cells fitted with a removable aluminum foil substrate designed to collect MLVs into a single membrane pellet upon centrifugation. Samples were then loaded into a Sorvall AH-629 swinging bucket ultracentrifuge rotor (DuPont Corp., Wilmington, Del.) and centrifuged at 35,000 g, 5° C., for 1.5 hours.
Following membrane orientation, sample supernatants were aspirated and aluminum foil substrates mounted onto curved glass slides. The membrane samples were then placed in hermetically sealed containers in which temperature and relative humidity were controlled during x-ray diffraction analysis. Data reported in this study were collected at 20° C. and 74% relative humidity.
This technique allows for precise measurement of the unit cell periodicity, or d-space, of the membrane lipid bilayer, which is the distance from the center of one lipid bilayer to the next, including surface hydration.
The presence of cholesterol domains in a given membrane sample results in the production of distinct Bragg (diffraction) peaks that have singular periodicity values of 34 Å and 17 Å. These peaks are typically referred to as first- and second-order cholesterol domain peaks.

Structure (SMILES)	antioxidant effect (LOOH formation), separate treatments [1]	membrane cholesterol domain formation [2]	DPH apparent rotational correlation time / membrane fluidity [3]	effect on d-space values [4]	cholesterol domain peaks compared to samples treated with EPA [4]
CC(C)c1c(C(=O)Nc2ccccc2O)c(-c2ccccc2)c(-c2ccc(F)cc2)n1CC[C@@H](O)C[C@@H](O)CC(=O)O [ATM, Atorvastatin ortho- (o-) hydroxy (active) metabolite, reference compound]	separate and potent antioxidant effects				
CC/C=C\C/C=C\C/C=C\C/C=C\C/C=C\C/C=C\CCC(=O)O [DHA, cis-4,7,10,13,16,19-docosahexaenoic acid, reference compound]		induced formation of membrane cholesterol domains	reduced DPH apparent rotational correlation time		
Cc1ccc(C)c(OCCCC(C)(C)C(=O)O)c1 [gemfibrozil]				significant reductions in d-space	disproportionately greater
O=C(O)c1cccnc1 [niacin, nicotinic acid]				significant reductions in d-space	disproportionately greater
